Measured values taken from patent publication US7390826B2, “Inhibitors of animal cell motility and growth” (The Board of Trustees of The University of Illinois, priority 2002, dated 2008).
Read-outs that look alike come from different tables or passages of the source.

Assays:
[1] = test system: Xenopus laevis embryos; assay: frog embryo morphogenesis assay (scoring of developmental defects); assay type: in vivo; details: Xenopus laevis, read-out: EC50 with respect to the defective phenotype at 72 hr following treatment
Text: In order to identify compounds that specifically perturb morphogenesis in the frog embryo, a suitable method for scoring embryos by characteristic defects was developed. A useful starting point was the “dorso-anterior index” (DAI). The DAI originally was constructed by adding new morphological characteristics to the older “index of axis deficiency” (S. R. Scharf et al., Dev. Biol., 99, 75-87 (1983)). The DAI is a scale of dorsoanterior development wherein embryos are assigned a score based on degree of dorsoanterior phenotype (K. R. Kao et al., Dev. Biol., 127, 64-77 (1988)). The scale encompasses a score of 0 (for the most axis-deficient or ventralized embryos) to 10 (for embryos with the most enhanced dorsoanterior structures), with a score of 5 signifying a normal embryo.
Because the DAI focuses only on dorsoanterior phenotypes, other categories were added to describe possible defects more comprehensively, with an emphasis on characteristics that are easily and unambiguously recognized in intact embryos, and that are diagnostic of possible effects on morphogenesis during gastrulation and neurulation. The most useful and readily scored categories that covered the most frequent deficiencies were: reduced anterior structures and microcephaly, delayed appearance or absence of eye pigmentation, overall shortness along the anteroposterior axis, bent axis, bent tail only, reduced posterior structures/tail, malformed or reduced fins, delayed or failed neural tube closure (neural fold fusion), abnormal pigmentation pattern, ventral swelling (edema), and delayed or abnormal visceral organogenesis and yolk resorption. In addition, blastopore closure, an earlier process that marks the completion of gastrulation, was observed.
In these tests, test compounds were added individually to wells each containing 4-8 embryos in 12-well plates. Embryos at stage 8.5-9, according to the classification of Nieuwkoop and Faber (P. I. Nieuwkoop et al., Normal Table of Xenopus laevis (Daudin). Amsterdam: North-Holland Publ.) (1967)), were used because these are late blastula stages before gastrulation begins at stage 10, which allowed focusing primarily on compounds that affect morphogenetic events in gastrulation and neurulation. These embryos, therefore, have undergone a midblastula transition at stage 8 (cleavage division 12) when zygotic transcription begins (J. Newport et al., Cell, 30, 675-686 (1982); J. Newport et al., Cell, 30, 687-696 (1982)) but have not yet started the morphogenetic movements of gastrulation.
Standard procedures were used in the care of animals, gamete preparation, fertilization of oocytes, and culture of embryos (B. K. Kay et al., Methods in Cell Biology, Volumn 36 (San Diego: Academic Press, Inc.) (1991)). In order to stimulate ovulation, female frogs were injected with 500 units of human chorionic gonadotropin (HCG). Eggs were squeezed from female frogs 12 hours later. Testes were removed from euthanized male frogs that had been primed with 50 units of HCG 4-6 hours earlier. The testes were stored at 4° C. in single strength Marc's Modified Ringer's solution with 50 μg/ml gentamycin and used for no more than 10 days. Small pieces of testes were macerated and spread over eggs for in vitro fertilization in Petri dishes. Fertilized eggs were placed in one-tenth strength Modified Barth's Saline (MBS) with 50 μg/ml gentamycin at constant temperature (19° C.) in a temperature-controlled incubator and development allowed to proceed under these conditions. Embryos were dejellied by briefly swirling them in a solution of 2% (w/v) L-cysteine, pH 8.0. The embryos then were rinsed extensively with one-tenth strength MBS to wash out the cysteine. Experiments were started within an hour of dejellying the embryos.
Experiments were carried out in 12-well flat-bottom polystyrene plates with 4-8 embryos per well in 1.0 ml of one-tenth strength MBS with 50 μg/ml gentamycin at 19° C. […]

[2] = test system: MDCK cell wounds; assay: lamellipodial density at the margin of MDCK cell wounds; assay type: cell-based, canine; parameters: key to Lamellipodial Density: lamellipodial protrusions per unit margin perimeter length; details: 50 μM, mean ± SEM, * p<0.05 vs control
Experimental: Lamellipodial protrusion is known to drive most forms of animal cell crawling. At any given time in the migrating cell sheet, some cells are extending lamellipodia at the margin while others are not. […] Therefore, inhibition of cell sheet migration by compound 1 at least in part is attributed to reduced formation of lamellipodia at the would margin.
Lamellipodial density at the margin of MDCK cell wounds was determined under the following treatment conditions: 0.1% DMSO (control, n=25 wounded monolayers), 50 μM compound 1 (n=19), or 50 μM compound 11 (n=10). Lamellipodial density is the number of lamellipodial protrusions detected at the wound margin until closure for the times indicated divided by margin perimeter length. Values are mean±SEM.
(§1) Wound closure assay and compound screening: MDCK cells were plated on multiwell tissue culture plates and cultured at 37° C. and 5% CO2 with medium changes every two days until confluent. When the cultures reached confluence, medium was changed again and all experimental treatments were begun a day later. Compounds were solubilized in dimethyl sulfoxide (DMSO) and added with fresh-medium to cell cultures at initial screening concentrations of 10 and 100 μM. Controls consisted of parallel wells to-which DMSO solvent carrier alone was added at the same concentration as that added with experimental treatments (not exceeding 0.1% (v/v)). DMSO alone at this concentration had no detectable effect on the cells. Monolayers were scraped 30 min later with a micropipette and ultramicro tips, allowing small wounds of consistent size to be generated. Progress of wound closure was examined at set time intervals following wounding by microscope, and inhibitory or acceleratory effects on wound closure relative to parallel controls noted. […] Digital images of the wounded monolayers were taken every 2 hours for 18 hours, and then at 30, 36, 54, 60, and 72 hours following wounding. The number of lamellipodia at the wound margin was also counted at these times.

[3] = test system: Madin-Darby canine kidney (MDCK) cell monolayers; assay: scrape-wound closure assay in MDCK cell monolayers; assay type: cell-based; details: even at the highest concentration tested (500 μM)
Text: A method of determining the ability of a compound to inhibit or accelerate cell motility is a scrape-wound closure assay using cultured mammalian epithelial cell monolayers. Mechanical scraping of the epithelial monolayer induces cell sheet migration into the resulting gap, a phenomenon characteristic of wounded epithelia and mechanistically related to normal epithelial movements during embryonic morphogenesis (A. Jacinto et al., Nat. Cell Biol, 3, E117 (2001)). Epithelial cell sheet migration in this method proceeds by a Rac- and phosphoinositide-dependent cell crawling mechanism resembling the motility of other animal cells that move as individuals rather than as cell sheets (G. Fenteany et al., Curr. Biol., 10, 831 (2000)).
Wound closure in MDCK cell monolayers primarily involves cell spreading and motility rather than proliferation based on observations and treatments that block cell growth without inhibiting closure. However, after closure is complete and the gap is covered, cell division is observed in the former wound area, presumably as part of a homeostatic mechanism to regain the original cell density (M. F. Olson et al., Science, 269, 1270 (1995)). Wound closure involves Rac- and phosphoinositide-dependent actin polymerization and protrusion-driven cell crawling behavior, where force generation for movement is distributed from the wound margin to several rows of cells behind the margin. Accordingly, this method is excellent for determining whether a compound affects cell motility.
Cell culture conditions: Madin-Darby canine kidney (MDCK) cells (American Type Culture Collection cell line CCL-34) were cultured in Minimum Essential Medium (with Earle's balanced salts, non-essential amino acids, L-glutamine and sodium pyruvate) supplemented with 10% newborn calf serum at 37° C. and 5% carbon dioxide (CO2). Main cultures were grown in either […] tissue culture flasks with medium changes every two days. When cultures were about 75% confluent, cells were passaged by rinsing twice with single strength phosphate buffered saline (PBS) and treating with a solution of 0.05% (w/v) trypsin/0.02% (w/v) ethylenediaminetetraacetic acid (EDTA) in PBS to detach cells from the flasks. After cells were detached, an equal volume of serum-containing medium was added to inhibit the trypsin and cell density was determined using a hemacytometer. Cells were replated following dilution in fresh medium on new tissue culture flasks for continued culture and multiwell tissue culture plates for experiments. No culture used exceeded 15 passages. Experimental cultures were grown in 12-, 24-, 48-, or 96-well tissue culture plates with medium changes every two days.
as §1, with “times. […]” for “times.”

[4] = test system: MDCK cells; assay: MDCK cell proliferation; assay type: cell-based, canine
Experimental: In FIG. 2A, cells were plated at low cell density (1×10^4 cells/mL) and allowed to attach and begin to grow for 48 hours prior to the start of experiment. The treatments were 0.1% DMSO (control, n=9 cultures), 50 μM compound 1 (n=8), or 50 μM compound 11 (n=7). Reported values are mean with SEM of the percent increase in cell number from 0 to 48 hours after addition of compound 1.
The values were mean with SEM of the percent increase in cell number another 48 hours after replacement of medium containing 50 μM compound 1 (n=8 cultures) or 0.1% DMSO (n=9) with fresh medium containing 0.1% DMSO.
MDCK cell proliferation: MDCK cells were plated on multiwell tissue culture plates at low density ([…]). Cells were allowed to attach and begin to grow for 48 hours before the start of the experiment. Fresh medium with or without compound was then added, and cells were incubated for 48 hours. At both 0 and 48 hours, some of the parallel wells for control and compound treatments were washed twice with PBS and treated with trypsin/EDTA solution to detach the cells. An equal volume of medium was added, cells were collected and counted using a hemacytometer. For reversibility, some of the parallel cultures for both control and compound treatments were grown another 48 hours after washing twice with PBS and replacing medium with fresh compound-free medium. At both the time of washing out and 48 hours later, some of the parallel wells for control and compound treatments were washed twice with PBS, detached from the plates with trypsin/EDTA solution, and the number of cells was counted.

[5] = solubility in carrier solvent; assay type: physicochemical
Experimental: Experiments were carried out in 12-well flat-bottom polystyrene plates with 4-8 embryos per well in 1.0 ml of one-tenth strength MBS with 50 μg/ml gentamycin at 19° C. Staging of embryos was done according to the classification of Nieuwkoop and Faber. Embryos at stage 8.5-9 (late blastula stages prior to the debut of gastrulation at stage 10) or at the 2-cell stage (after the first cleavage division, Nieuwkoop and Faber stage 2), as indicated in the figures, were treated with a test compound or dimethylsulfoxide (DMSO) carrier solvent and maintained at 19° C. […] DMSO alone at this concentration had no detectable effect on the embryos. […] As with 0.1% DMSO, this concentration of DMF had no effect on development of the frog embryos. Each experiment was conducted in triplicate on at least three separate occasions for a total of 9 or more wells per treatment. Embryos were observed using a stereomicroscope and scored for defects or delayed development at set times (0, 3, 6, 9, 12, 24, 48, 72, and 96 hours) following treatment.

[6] = 72 hr after treatment, dose-response, 5 concentrations

SMILES | EC50 [1, 6] [µM] | EC50 ([1]; 72 h) [µM] | further results
O=C(/C=C/c1cccc(F)c1)N1C(=O)OC[C@@H]1Cc1ccccc1 [Compound 33] | 47.6 | – | –
CC/C=C/C(=O)N1C(=O)OC[C@@H]1Cc1ccccc1 [Compound 13] | 54.6 | – | –
C/C=C/C(=O)N1C(=O)OC[C@@H]1c1ccccc1 [Compound 30] | – | 10.1 | –
CCCC(=O)N1C(=O)OC[C@@H]1Cc1ccccc1 [Compound 11] | – | – | Lamellipodial Density ([2]; 2 hours): 0.563 ± 0.148; Lamellipodial Density ([2]; 4 hours): 1.139 ± 0.270; Lamellipodial Density ([2]; 6 hours): 1.289 ± 0.276; Lamellipodial Density ([2]; 8 hours): 1.196 ± 0.312; Lamellipodial Density ([2]; 10 hours): 1.609 ± 0.357; Lamellipodial Density ([2]; 12 hours): 1.368 ± 0.309; bioactivity in wound closure assay [3]: no statistically significant bioactivity; inhibition of MDCK cell proliferation (percent increase in cell number) ([4]; 50 μM, 0 to 48 hours): not; bioactivity in cell proliferation assay ([4]; even at the highest concentration tested (500 μM)): no statistically significant bioactivity
O=C(/C=C/c1cccc(C(F)(F)F)c1)N1C(=O)OC[C@@H]1Cc1ccccc1 [Compound 54] | 30.4 | – | –
C/C=C\C(=O)N1C(=O)OC[C@@H]1Cc1ccccc1 [Compound 17] | – | 19.1 | –
C=CC(=O)N1C(=O)OC[C@@H]1Cc1ccccc1 [Compound 52] | – | 6.1 | –
O=C(/C=C/c1c(F)c(F)c(F)c(F)c1F)N1C(=O)OC[C@@H]1Cc1ccccc1 [Compound 22] | – | – | solubility in DMF versus DMSO [5]: more soluble in DMF
CC#CC(=O)N1C(=O)OC[C@@H]1Cc1ccccc1 [Compound 31] | 5.9 | – | –
C/C=C/C(=O)N1C(=O)OC[C@@H]1C(C)C [Compound 15] | – | 25.9 | –
C/C=C/C(=O)N1C(=O)O[C@H](c2ccccc2)[C@H]1C [Compound 26] | – | 12.7 | –
C/C=C/C(=O)N1C(=O)OC[C@H]1Cc1ccccc1 [Compound 45] | – | 8.9 | –
O=C(/C=C/c1ccc(O)cc1)N1C(=O)OC[C@@H]1Cc1ccccc1 [Compound 41] | 27.1 | – | solubility in DMF versus DMSO [5]: more soluble in DMF
C/C=C/C(=O)N1CCOC1=O [Compound 6] | – | 39.1 | –
C/C=C/C(=O)N1C(=O)O[C@@H](c2ccccc2)[C@@H]1C [Compound 25] | – | 13.9 | –
CCCCC/C=C/C(=O)N1C(=O)OC[C@@H]1Cc1ccccc1 [Compound 23] | 58.1 | – | –
